Common to all, as to type: cell-based, human
One assay concerns SKM-1 cells. Kind of assay: EPZ-5676 300 nM 7-day pre-treatment, then second compound 72 hours, ATPLite, IC50 shift (Example 6). Here is the method: Cells were then equilibrated in incubators for 24 hours before treatment with a second compound. Treated assay plates were incubated with a second compound for 72 hours. After this time, plates were developed for endpoint analysis using ATPLite to measure ATP content, which is used as an indicator of cell viability.
“N/D” means that IC50 of the second compound could not be determined for both conditions.

The next assay has as its system MOLM-13 (MLL-AF9). Kind of assay: Combination proliferation study with Compound A2 (ATP/CellTiter-Glo, Chou-Talalay combination index). The protocol:
(§1) The acute myelogenous leukemia cell lines MV4-11 (MLL-AF4) and MOLM-13 (MLL-AF9) were obtained from American Type Culture Collection (ATCC; Rockville, Md.) and Deutsche Sammlung von Mikroorganismen and Zellkulturen (DSMZ; Braunschweig, Germany) respectively.
(§2) Studies were performed using MLL-rearranged cell lines in vitro to evaluate the anti-proliferative effect of a combination of two agents together on cell growth. Initial proliferation studies were performed to determine the IC50 of a given compound in each cell line. The cell counts were measured by ATP quantitation using the Promega Cell Titer Glo kit and luminescence values corresponded to the amount of ATP in a given well.
(§3) Compounds were evaluated for synergy in the co-treatment phase by testing the compounds in a concentration range which was bracketed around their IC50 values. The compounds were plated to a 96 well plate in a matrix format (FIG. 3) which includes increasing concentrations of each drug in the combination in a constant ratio, in addition to the effect of each compound alone in the study. Cells were seeded and grown in the log-linear phase for 3 or 7 days in the co-treatment phase. Minimum inhibition (DMSO alone) controls were used in each plate to calculate fraction affected (Fa) of a test well. DMSO concentration was kept at 0.1% v/v.
(§4) The drug combination analysis was performed utilizing the Chou-Talalay method Synergy was determined using the software package Calcusyn by Biosoft. The combination index (CI) is a quantitative term used to describe the level of synergy or antagonism in a given test system. A combination index less than one indicates synergy, and a CI greater than one indicates antagonism. Further, strong synergism is achieved when the CI value falls below 0.3.
(§5) Graphs representing values of combination index (CI) versus Fractional effect (Fa) known as Fa-CI plots were generated and synergy was evaluated. Drug synergy was statistically defined by CI values less than 1, antagonism by CI>1 and additive effect by CI equal to 1.
Graphs representing values of combination index (CI) versus Fractional effect (Fa) known as Fa-CI plots were generated and synergy was evaluated. Drug synergy was statistically defined by CI values less than 1, antagonism by CI>1 and additive effect by CI equal to 1. […]
Cell viability was measured via ATP content using CellTiter-Glo® (Promega).
Proliferation studies were performed using MOLM-13, MV4-11 and SKM-1 cell lines in vitro to evaluate the cancer cell killing effect of a combination of two agents together on cell growth. Initial proliferation studies were performed to determine the IC50 values of a given compound in each cell line. The cell counts were measured by ATP quantitation using the Promega Cell Titer Glo kit and luminescence values correspond to the amount of ATP in a given well. […]
Compounds evaluated for synergy in the co-treatment phase were tested in a range which was bracketed around the IC50's.

The next assay relates to MV4-11 (MLL-AF4). The assay is described as above. The conditions noted are these: for Combination with Compound A2, MV4-11 (MLL-AF4): 7 Day Cotreatment Model, Table 4; for Combination of Compound A2 and anti-cancer agent, MV4-11: 7 Day Cotreatment. The protocol: as §1, §2, §3, §4, §5, §5
The HP-D300 digital dispenser (Tecan) was used to dispense compounds in a combinatorial matrix. […] Cell viability was measured via ATP content using CellTiter-Glo® (Promega).
Viability was determined using CellTiter-Glo® (Promega).
Proliferation studies were performed using MOLM-13, MV4-11 and SKM-1 cell lines in vitro to evaluate the cancer cell killing effect of a combination of two agents together on cell growth. Initial proliferation studies were performed to determine the IC50 values of a given compound in each cell line. The cell counts were measured by ATP quantitation using the Promega Cell Titer Glo kit and luminescence values correspond to the amount of ATP in a given well.
These studies were performed to evaluate both the combinatorial effect of compounds on cell killing and the durability of the effect by washing out one of the agents.
Compounds evaluated for synergy in the co-treatment phase were tested in a range which was bracketed around the IC50's. The compounds were plated to a 96 well plate in a matrix format which includes increasing concentrations of each drug in the combination in a constant ratio, in addition to the effect of each compound alone in the study.

Where [1] appears, read: SKM-1 cells, 300 nM EPZ-5676 or DMSO 7-day pre-treatment, then 2nd compound 72 hours, ATPLite, Synergy = IC50 of 2nd compound decreased by 2-fold or more vs DMSO control.
Setting [2] is: 7 Day Cotreatment Model, Table 4.

Where a name gives a salt, the structure may show the parent alone. Read-outs that look alike come from different tables or passages of the source.

On to Arsenic Trioxide, for which the “SKM-1 (summary of combination study: EPZ-5676 + 2nd compound)” value with SKM-1 cells amounted to 2.0. As for `N#Cc1c(C2CCNCC2)cc(-c2c(O)cccc2OCC2CC2)nc1N` [IKK-2 Inhibitor VIII], in the assay on SKM-1 cells (setting [1]), the “SKM-1 (summary of combination study: EPZ-5676 + 2nd compound)” value was “Synergy (considered synergistic if the IC50 value of the second compound decreased by 2-fold or more when EPZ-5676 was added as compared to the DMSO control)”. As for `CC(C)CC(=O)Nc1[nH]nc2c1CN(C(=O)C1CCN(C)CC1)C2(C)C` [PHA-793887], the “SKM-1 (summary of combination study: EPZ-5676 + 2nd compound)” value in the assay with SKM-1 cells (setting [1]) is “Synergy (considered synergistic if the IC50 value of the second compound decreased by 2-fold or more when EPZ-5676 was added as compared to the DMSO control)”. Still for that read-out and setting: the entry for `C[C@H]1C[C@@H]2[C@H]([C@@H](O)C[C@@]3(C)[C@H]2CC[C@]3(O)C(=O)CO)[C@@]2(C)C=CC(=O)C=C12` [Methylprednisolone] is “Synergy (considered synergistic if the IC50 value of the second compound decreased by 2-fold or more when EPZ-5676 was added as compared to the DMSO control)”. Consider `CC[C@]1(O)C[C@H]2CN(CCc3c([nH]c4ccccc34)[C@@](C(=O)OC)(c3cc4c(cc3OC)N(C=O)[C@H]3[C@@](O)(C(=O)OC)[C@H](OC(C)=O)[C@]5(CC)C=CCN6CC[C@]43[C@@H]65)C2)C1` [Vincristine], for which, in the assay with MOLM-13 (MLL-AF9) (setting [2]), the “Combination with Compound A2, MOLM-13 (MLL-AF9)” value (from here on “Combination … (MLL-AF9)”) is “Additive (additive effect by CI equal to 1)”. Besides, the “Combination with Compound A2, MV4-11 (MLL-AF4)” value (from here on “Combination … (MLL-AF4)”) in the assay with MV4-11 (MLL-AF4) is on record as “Additive (additive effect by CI equal to 1)”. Take `CC(C)C[C@H](NC(=O)CNC(=O)c1cc(Cl)ccc1Cl)B(O)O` [MLN2238]: the “SKM-1 (summary of combination study: EPZ-5676 + 2nd compound)” value in the assay with SKM-1 cells (setting [1]) was “Synergy (considered synergistic if the IC50 value of the second compound decreased by 2-fold or more when EPZ-5676 was added as compared to the DMSO control)”. `CCCc1cc2c(N3CCN(C4=NCC(C)(C)S4)CC3)ncnc2s1` [Menin-MLL inhibitor MI-2]: the “Combination … (MLL-AF9)” value in the assay on MOLM-13 (MLL-AF9) (setting [2]) is given as “Synergy (Drug synergy was statistically defined by CI values less than 1)”. Besides, in the assay on MV4-11 (MLL-AF4), the “Combination … (MLL-AF4)” value is “Synergy (Drug synergy was statistically defined by CI values less than 1)”. In the case of `N[C@@H]1C[C@H]1c1ccccc1` (racemic) [Tranylcypromine], the “Combination of Compound A2 and anti-cancer agent, MOLM-13” value in the assay on MOLM-13 (MLL-AF9) (7 Day Cotreatment) is reported as “synergy”. Besides, the “Combination … (MLL-AF9)” value in the assay on MOLM-13 (MLL-AF9) (setting [2]) was “Strong Synergy”. For the same molecule, in the assay with MV4-11 (MLL-AF4), the “Combination of Compound A2 and anti-cancer agent, MV4-11” value is “synergy”; the “Combination … (MLL-AF4)” value is recorded as “Synergy (Drug synergy was statistically defined by CI values less than 1)”.

Consider `CN(Cc1cnc2nc(N)nc(N)c2n1)c1ccc(C(=O)N[C@@H](CCC(=O)O)C(=O)O)cc1` [Methotrexate], for which the “Combination … (MLL-AF9)” value in the assay with MOLM-13 (MLL-AF9) (setting [2]) is “Additive (additive effect by CI equal to 1)”. The “Combination … (MLL-AF4)” value in the assay on MV4-11 (MLL-AF4) is “Additive (additive effect by CI equal to 1)”. In the case of `C=C[C@@]1(C)CC(=O)[C@]2(O)[C@@]3(C)[C@@H](O)CCC(C)(C)[C@@H]3[C@H](OC(=O)CCN(C)C)[C@H](OC(C)=O)[C@@]2(C)O1.Cl` [NKH 477], the “SKM-1 (summary of combination study: EPZ-5676 + 2nd compound)” value in the assay with SKM-1 cells (setting [1]) is recorded as “Synergy (considered synergistic if the IC50 value of the second compound decreased by 2-fold or more when EPZ-5676 was added as compared to the DMSO control)”. Still for that read-out and setting: with `CN(C)CC[C@H](CSc1ccccc1)Nc1ccc(S(=O)(=O)NC(=O)c2ccc(N3CCN(Cc4ccccc4-c4ccc(Cl)cc4)CC3)cc2)cc1[N+](=O)[O-]` [ABT-737] the entry was “Synergy (considered synergistic if the IC50 value of the second compound decreased by 2-fold or more when EPZ-5676 was added as compared to the DMSO control)”. On the same count and under the same terms, the figure for `CCN(CC)CCNC(=O)c1c(C)[nH]c(/C=C2\C(=O)Nc3ccc(F)cc32)c1C` [Sunitinib Malate] is 2.0; for `COc1ccc(Cc2nccc3cc(OC)c(OC)cc23)cc1OC` [Papaverine Hydrochloride] it is “Synergy (considered synergistic if the IC50 value of the second compound decreased by 2-fold or more when EPZ-5676 was added as compared to the DMSO control)”. The same measure, in the same setting: with `COc1ccc(-c2ccc3c(N4CCOC[C@@H]4C)nc(N4CCOC[C@@H]4C)nc3n2)cc1CO` [AZD 8055] the entry was “Synergy (considered synergistic if the IC50 value of the second compound decreased by 2-fold or more when EPZ-5676 was added as compared to the DMSO control)”. On to `CC(=O)c1c(C)c2cnc(Nc3ccc(N4CCNCC4)cn3)nc2n(C2CCCC2)c1=O` [Palbociclib], for which, in the assay on MOLM-13 (MLL-AF9) (setting [2]), the “Combination … (MLL-AF9)” value was “Synergy (Drug synergy was statistically defined by CI values less than 1)”. Also, the “Combination … (MLL-AF4)” value in the assay on MV4-11 (MLL-AF4) was “Synergy (Drug synergy was statistically defined by CI values less than 1)”. Consider `C#Cc1cccc(Nc2ncnc3cc(OCCOC)c(OCCOC)cc23)c1` [Erlotinib Hydrochloride], for which the “SKM-1 (summary of combination study: EPZ-5676 + 2nd compound)” value with SKM-1 cells (setting [1]) is “Synergy (considered synergistic if the IC50 value of the second compound decreased by 2-fold or more when EPZ-5676 was added as compared to the DMSO control)”. Still for that read-out and setting: with `COc1ccc(CCc2nc3cc(-c4c(C)noc4C)ccc3n2C[C@H](C)N2CCOCC2)cc1Cl` [SGC-CBP30] the entry was “Synergy (considered synergistic if the IC50 value of the second compound decreased by 2-fold or more when EPZ-5676 was added as compared to the DMSO control)”; with `O=C(Nc1cccc(Nc2ncc(Br)c(NCCc3cnc[nH]3)n2)c1)N1CCCC1` [BX-912], “Synergy (considered synergistic if the IC50 value of the second compound decreased by 2-fold or more when EPZ-5676 was added as compared to the DMSO control)”.

Consider `Cc1sc2c(c1C)C(c1ccc(Cl)cc1)=N[C@@H](CC(=O)OC(C)(C)C)c1nnc(C)n1-2` [JQ1], for which the “Combination … (MLL-AF9)” value in the assay with MOLM-13 (MLL-AF9) (setting [2]) is on record as “Additive (additive effect by CI equal to 1)”; in the assay with MOLM-13 (MLL-AF9) (Table 2, Example 3), “Additive (additive effect by CI equal to 1)”. In the assay on MV4-11 (MLL-AF4), the “Combination … (MLL-AF4)” value is recorded as “Additive (additive effect by CI equal to 1)”. Moreover, in the assay on MV4-11 (MLL-AF4) (Table 2, Example 3), the “Combination with Compound A2, MV4-111 MLL-AF4” value was “Additive (additive effect by CI equal to 1)”. Take `NC(=O)NO` [Hydroxyurea]: the “Combination … (MLL-AF9)” value with MOLM-13 (MLL-AF9) (setting [2]) was “Synergy (Drug synergy was statistically defined by CI values less than 1)”. In addition, the “Combination … (MLL-AF4)” value with MV4-11 (MLL-AF4) is given as “Synergy (Drug synergy was statistically defined by CI values less than 1)”. As to `S=c1nc[nH]c2nc[nH]c12` [Mercaptopurine], the “Combination … (MLL-AF9)” value in the assay on MOLM-13 (MLL-AF9) (setting [2]) is “Additive --> Synergy”. Also, the “Combination … (MLL-AF4)” value with MV4-11 (MLL-AF4) was “Additive (additive effect by CI equal to 1)”. With `O=C1c2c(O)ccc(O)c2C(=O)c2c(NCCNCCO)ccc(NCCNCCO)c21` [Mitoxantrone], in the assay on MOLM-13 (MLL-AF9) (setting [2]), the “Combination … (MLL-AF9)” value is “Synergy (Drug synergy was statistically defined by CI values less than 1)”. Also, in the assay with MV4-11 (MLL-AF4), the “Combination of Compound A2 and anti-cancer agent, MV4-11” value is reported as “Synergy (A combination index less than one indicates synergy)”; the “Combination … (MLL-AF4)” value was “Synergy (Drug synergy was statistically defined by CI values less than 1)”.

The record behind these values is patent US20200030355A1, “COMBINATION THERAPY FOR TREATING CANCER” (Epizyme, Inc., priority 2014, published 2020).
